Results reported in ChEMBL document CHEMBL4837190, “Targeted Isolation of Hemitheion from Mostuea brunonis, a Proposed Biosynthetic Intermediate of Theionbrunonines” (J Nat Prod, 2021).

Tests used:
MRC5 = assay: Cytotoxicity against human MRC5 cells assessed as growth inhibition measured after 72 hrs by MTS assay; type: cell-based; conditions: MRC5, 72 h
Plasmodium falciparum = assay: Antiplasmodial activity against chloroquine-resistant Plasmodium falciparum FcB1/Colombia infected in human red blood cells assessed as reduction in [3H]-hypoxanthine incorporation measured after 24 hrs liquid scintillation counting method; type: functional, organism-based, RBC; conditions: Erythrocyte

| SMILES | IC50 (MRC5) | IC50 (Plasmodium falciparum) |
| --- | --- | --- |
| C/C=C1/CN(C)[C@@H]2Cc3c([nH]c4ccccc34)C(=O)C[C@H]1[C@H]2C(=O)OC | > 50 µM | 22.5 µM |
| C/C=C1/CN(C)[C@@H]2Cc3c([nH]c4ccccc34)[C@@H](S)C[C@H]1[C@H]2C(=O)OC | > 50 µM | 1.05 µM |
| CC[C@H]1N[C@H]2C[C@@]3(C(=O)N(OC)c4cc(OC)ccc43)[C@@H]3C[C@@H]1[C@@H]2CO3 | > 50 µM | 59.5 µM |
| CC[C@H]1N[C@H]2C[C@@]3(C(=O)N(OC)c4ccccc43)[C@@H]3C[C@@H]1[C@@H]2CO3 | > 50 µM | 42.5 µM |
